Calls of active or inactive are those of the source. The calls are words filed in the database; no cut-off is given here.
Tests used:
[1] = Cytotoxicity against human HEK293 cells assessed as cell viability measured for 24 hrs by MTT assay; assay type: cell-based
[2] = Selectivity ratio of IC50 for anticancer activity against human L02 cells to IC50 for anticancer activity against human HepG2 cells; assay type: toxicity, cell-based; conditions: L02 cells versus HepG2 cells, read-out: Ratio IC50
Plasmodium falciparum [3] = experiment: Antiplasmodial activity against schizont stage chloroquine-resistant Plasmodium falciparum INDO assessed as parasite killing for 9 to 12 hrs by stage specific inhibition assay relative to contol; assay type: functional; set-up: scale not given: the % may be the effect or the level left; conditions: time 9-12 hrs
Plasmodium falciparum [4] = experiment: Antiplasmodial activity against ring stage chloroquine-resistant Plasmodium falciparum INDO assessed as ring stage parasite killing for 0 to 6 hrs by stage specific inhibition assay relative to control; assay type: functional; set-up: scale not given: the % may be the effect or the level left; conditions: time 0-6 hrs
Plasmodium falciparum [5] = experiment: Antiplasmodial activity against trophozoite stage chloroquine-resistant Plasmodium falciparum INDO assessed as parasite killing for 4 to 8 hrs by stage specific inhibition assay relative to control; assay type: functional, organism-based; conditions: time 4-8 hrs
L02 = experiment: Anticancer activity against human L02 cells assessed as cell growth inhibition measured for 72 hrs by MTT assay; assay type: functional, cell-based; conditions: L02, 72 h
Plasmodium falciparum [6] = experiment: Resistance index, ratio of IC50 for antiplasmodial activity against artemisinin-resistant Plasmodium falciparum Cam 3.1 R539 to IC50 for antiplasmodial activity against chloroquine-resistant Plasmodium falciparum INDO; assay type: functional
Plasmodium falciparum [7] = experiment: Antiplasmodial activity against chloroquine-resistant Plasmodium falciparum INDO assessed as growth inhibition by SYBER green 1 dye based fluorescence assay; assay type: functional, organism-based
Plasmodium falciparum [8] = experiment: Antiplasmodial activity against ring stage chloroquine-resistant Plasmodium falciparum INDO assessed as percentage survival at 70 nM for 6 hrs by ring stage survival assay; assay type: functional, organism-based
Plasmodium falciparum [9] = experiment: Antiplasmodial activity against trophozoite stage chloroquine-resistant Plasmodium falciparum INDO assessed as parasite killing for 0 to 4 hrs by stage specific inhibition assay relative to control; assay type: functional; set-up: scale not given: the % may be the effect or the level left; conditions: time 0-4 hrs
Plasmodium falciparum [10] = experiment: Antiplasmodial activity against artemisinin-resistant Plasmodium falciparum Cam 3.1 R539 assessed as growth inhibition by SYBER green 1 dye based fluorescence assay; assay type: functional, organism-based
Plasmodium falciparum [11] = experiment: Antiplasmodial activity against schizont stage chloroquine-resistant Plasmodium falciparum INDO assessed as parasite killing for 6 to 9 hrs by stage specific inhibition assay relative to control; assay type: functional; set-up: scale not given: the % may be the effect or the level left; conditions: time 6-9 hrs
[12] = Selectivity ratio of IC50 for anticancer activity against human BEAS-2B cells to IC50 for anticancer activity against human A549 cells; assay type: toxicity, cell-based; conditions: BEAS-2B cells versus A549 cells, read-out: Ratio IC50
Plasmodium berghei [13] = experiment: Antimalarial activity against Plasmodium berghei ANKA infected in Balb/c mouse assessed as suppression of parasitemia at 50 mg/kg, ip administered for 4 days by microscopic analysis; assay type: functional; conditions: time 4 day
Plasmodium berghei [14] = experiment: Antimalarial activity against Plasmodium berghei ANKA infected in Balb/c mouse assessed as suppression of parasitemia at 50 mg/kg, po administered for 4 days by microscopic analysis; assay type: functional; conditions: time 4 day
HepG2 = experiment: Anticancer activity against human HepG2 cells assessed as cell growth inhibition measured for 72 hrs by MTT assay; assay type: functional, cell-based; conditions: HepG2, 72 h
Plasmodium falciparum [15] = experiment: Antiplasmodial activity against schizont stage chloroquine-resistant Plasmodium falciparum INDO assessed as parasite killing for 0 to 3 hrs by stage specific inhibition assay relative to control; assay type: functional, organism-based; conditions: time 0-3 hrs
Plasmodium falciparum [16] = experiment: Antiplasmodial activity against schizont stage chloroquine-resistant Plasmodium falciparum INDO assessed as parasite killing for 3 to 6 hrs by stage specific inhibition assay relative to control; assay type: functional; set-up: scale not given: the % may be the effect or the level left; conditions: time 3-6 hrs
Plasmodium falciparum [17] = experiment: Antiplasmodial activity against ring stage chloroquine-resistant Plasmodium falciparum INDO assessed as ring stage parasite killing for 12 hrs by stage specific inhibition assay relative to control; assay type: functional; set-up: scale not given: the % may be the effect or the level left
Plasmodium falciparum [18] = experiment: Antiplasmodial activity against ring stage chloroquine-resistant Plasmodium falciparum Cam 3.1 R539 assessed as percentage survival at 700 nM for 6 hrs by ring stage survival assay relative to control; assay type: functional
Plasmodium falciparum [19] = experiment: Antiplasmodial activity against ring stage chloroquine resistant Plasmodium falciparum INDO assessed as percentage survival at 700 nM for 6 hrs by ring stage survival assay; assay type: functional
BEAS-2B [20] = experiment: Anticancer activity against human BEAS-2B cells assessed as cell growth inhibition measured for 72 hrs by MTT assay; assay type: functional, cell-based
Plasmodium falciparum [21] = experiment: Antiplasmodial activity against ring stage chloroquine-resistant Plasmodium falciparum Cam 3.1 R539 assessed as percentage survival at 70 nM for 6 hrs by ring stage survival assay; assay type: functional
[22] = Selectivity index, ratio of CC50 for human HEK293 cells to IC50 for antiplasmodial activity against chloroquine-resistant Plasmodium falciparum INDO; assay type: toxicity; conditions: HEK293 cells versus Plasmodium falciparum INDO
A549 [23] = experiment: Anticancer activity against human A549 cells assessed as cell growth inhibition measured for 72 hrs by MTT assay; assay type: functional, cell-based; conditions: A549, 72 h
A549 [24] = experiment: Induction of apoptosis in human A549 cells assessed as early apoptotic cells measured after 24 hrs by annexinV-FITC/propidium iodide staining based flow cytometry; assay type: functional
BEAS-2B [25] = experiment: Induction of apoptosis in human BEAS-2B cells assessed as late apoptotic cells measured after 24 hrs by annexinV-FITC/propidium iodide staining based flow cytometry; assay type: functional

Row | SMILES | CC50 at 24 h [1] [nM] | selectivity ratio [2] | Activity (Plasmodium falciparum [4]) [%] | Activity (Plasmodium falciparum [5]) | IC50 (L02) [nM] | Ratio IC50 (Plasmodium falciparum [6]) | IC50 (Plasmodium falciparum [7]) [nM] | Activity (Plasmodium falciparum [8]) | Activity (Plasmodium falciparum [9]) [%] | IC50 (Plasmodium falciparum [10]) [nM] | selectivity ratio [12] | Activity (Plasmodium berghei [13]) [%] | Activity (Plasmodium berghei [14]) [%] | IC50 (HepG2) [nM] | Activity (Plasmodium falciparum [15]) | Activity (Plasmodium falciparum [17]) [%] | Activity (Plasmodium falciparum [18]) [%] | IC50 (BEAS-2B [20]) [nM] | selectivity ratio [22] | IC50 (A549 [23]) [nM] | also measured
1 | C=C(c1ccc(Cl)cc1Cl)C1COC2(CCCC2)OO1 (stereo unspecified) | 12100 | 0.2 | 66 | Active | 2550 | 7.29 | 9.69 | inactive | 25 | 70.7 | 12.2 | 100 | 0 | 15700 | Active | 100 | 20 | 17400 | 1350 | 1430 | Activity (Plasmodium falciparum [3]): 100%; Activity (Plasmodium falciparum [11]): 100%; Activity (Plasmodium falciparum [16]): 60%; Activity (Plasmodium falciparum [19]): 10%; Activity (Plasmodium falciparum [21]): 100%
2 | C=C(c1ccc(Cl)c(Cl)c1Cl)C1COC2(CCCC2)OO1 (stereo unspecified) | 1440 | 0.13 |  |  | 1190 |  | 20.6 |  |  |  | 16.7 |  |  | 8450 |  |  |  | 11500 | 72 | 690 | Activity (A549 [24]): 93.6%; Activity (BEAS-2B [25]): 8.6%
3 | C=C(c1ccc(Cl)cc1Cl)C1COC2(CCCCC2)OO1 (stereo unspecified) | 2470 | 0.097 |  |  | 3690 | 6.09 | 18 |  |  | 109 | 20.6 |  |  | 17600 |  |  |  | 16700 | 145 | 810 | Activity (A549 [24]): 78%; Activity (BEAS-2B [25]): 4.5%
4 | C=C(c1ccc(OC)c(F)c1)C1COC2(OO1)C1CC3CC(C1)CC2C3 (stereo unspecified) | 15900 | 0.57 | 38 | Active | 11900 | 8.95 | 4.48 | inactive | 50 | 40.1 | 0.68 | 100 | 100 | 32100 | Active | 100 | 6 | 61200 | 3970 | 48200 | Activity (Plasmodium falciparum [19]): 100%; Activity (Plasmodium falciparum [21]): 30%

— ChEMBL document CHEMBL5053494, “Novel halogenated arylvinyl-1,2,4 trioxanes as potent antiplasmodial as well as anticancer agents: Synthesis, bioevaluation, structure-activity relationship and in-silico studies” (Eur J Med Chem, 2021)
